Measured values: patent US6069257A, “Process for the production of tetrazolylbenzopyrans” (SmithKline Beecham p.l.c., priority 1997, dated 2000)

Target: T1, leukotriene D4 receptors (guinea pig lung membranes) (Cavia porcellus, UniProt Q2NNR5)
T1 construct: prepared from tissues obtained from male Hartley guinea pigs; from tissue; host or cells: guinea pig lung membranes (male Hartley guinea pigs)
T1 sequence (Q2NNR5 1-340): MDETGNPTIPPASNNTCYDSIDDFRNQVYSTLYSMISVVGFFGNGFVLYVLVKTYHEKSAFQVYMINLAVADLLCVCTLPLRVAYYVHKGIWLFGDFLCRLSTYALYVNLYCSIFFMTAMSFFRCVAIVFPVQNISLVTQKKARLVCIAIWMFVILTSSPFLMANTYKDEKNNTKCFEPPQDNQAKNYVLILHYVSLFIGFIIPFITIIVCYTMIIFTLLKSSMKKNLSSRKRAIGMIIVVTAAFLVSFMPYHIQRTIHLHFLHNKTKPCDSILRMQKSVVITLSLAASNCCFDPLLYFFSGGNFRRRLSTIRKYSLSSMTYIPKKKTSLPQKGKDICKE
Assay: [3H]-LTD4 binding studies in guinea pig lung membranes
Protocol: Experimental Procedure for Binding Studies in Guinea-Pig Lungs with Pranlukast and Metabolites
Non-specific binding was determined in the presence of 0.5 uM cold LTD4. Membranes with bound ligand were captured on Whatman GF/C filters using vacuum filtration and a Brandel cell harvester, then washed with ice-cold 25 mM Tris-HCl. pH 7.4. The filters were placed in scintillation vials with 10 ml Ready Protein (Beckman, Fullerton, Calif., U.S.A.) and the radioactivity was determined by scintillation spectrometry.
All data are presented as Mean±S.E.M. Concentration-response curves (0.3-10,000 nM) for each compound were tested in at least 2 assays and run in duplicate. Cell-bound radioactivity was determined for each sample and non-specific binding was established in the presence of 1 uM unlabeled LTD4 and subtracted from control and drug-treated samples.

With O=C(Nc1cccc2c(=O)cc(-c3nnnn3O)oc12)c1ccc(OCCCCc2ccccc2)cc1 [Example 1, 4-Oxo-8-[4-(4-phenylbutoxy)benzoylamino]-2-(1-hydroxytetrazol-5-yl)-4H-1-benzopyran] the Ki was 0.22 nM.
In the case of O=C(Nc1cccc2c(=O)cc(-c3nnn(O)n3)oc12)c1ccc(OCCCCc2ccccc2)cc1 [Example 2, 4-Oxo-8-[4-(4-phenylbutoxy)benzoylamino]-2-(2-hydroxytetrazol-5-yl)-4H-1-benzopyran], the Ki is reported as 0.53 nM.
